Test results published in patent publication US20050113396A1, “2-Guanidino-4-heterocyclylquinazolines” (priority 2001, published 2005).
Structures can show the parent of a compound that is named as a salt.

Row | Compound | melting point [°C]
1 | Cc1noc(C)c1-c1nc(N=C(N)N)nc2ccc(Cl)cc12 (as salt: HCl) [Example 215] | 317 to 320
2 | COc1ncc(-c2nc(N=C(N)N)nc3ccc(Cl)cc23)c(OC)n1 (as salt: HCl) [Example 235] | 270 to 275
3 | NC(N)=Nc1nc(-n2c(Br)ccc2Br)c2cc(Cl)ccc2n1 (as salt: HCl) [Example 196] | 302
